Legend:
monkeys = conditions: NR2A antagonist; cited from earlier work
schizophrenia patients [1] = test: SAS, crossover trial of D-serine; format: in vivo, human
Description: (§1) The study was approved by the appropriate institutional review boards. Seventeen stable inpatients meeting DSM-IV criteria for schizophrenia and free of other axis I diagnoses or significant medical illness were enrolled in the study. Diagnosis was established on the basis of semistructured psychiatric interviews, review of all available medical records, and confirmation by two board-certified psychiatrists. […] Medication doses remained fixed throughout the study.
(§2) After complete description of the study, written informed consent was obtained from all participating patients. The double-blind, placebo-controlled, crossover study consisted of two random-order 6-week treatment arms (glycine 0.8 g/kg/day, or placebo), separated by a 2-week adjuvant treatment washout. Patients were assessed biweekly with the Positive and Negative Syndrome Scale (PANSS), Brief Psychiatric Rating Scale (BPRS), Simpson-Angus Rating Scale (SAS), and Abnormal Involuntary Movement Scale (AIMS) performed by one trained research psychiatrist, as previously described (3). CBC and SMA-20 measures were assessed biweekly throughout the study. Trough glycine and serine serum levels were assessed at baseline and at the end of the two treatment phases. Data were analyzed by repeated measures ANOVA with within group factor of study phase (glycine/placebo) and time within study phase (pre/post), and between group factor of treatment order.
(§3) Methods: Methods for this study are the same as in example 1, except that D-serine ([…]=approx. 2.1 g/day) was used for treatment. As previously, outcome was assessed using the PANSS, SAS and AIMS. In addition, the Schedule for Assessment of Negative Symptoms (SANS) was used to provide further assessment of negative symptoms. This represents an interim analysis of an ongoing study. Data were analyzed by between-treatment t-test of change scores during D-serine or placebo treatment. Data are analyzed only from subjects (n=23) who completed both study phases.

schizophrenia patients [2] = test: AIMS, crossover trial of D-serine; format: in vivo, human
Description: as §1, §2, §3

schizophrenia patients [3] = test: PANSS, crossover trial of D-serine; format: in vivo, human; parameters: PANSS Positive Symptoms, treatment week 6: dose or concentration left out as unconfirmed; conditions: mean ± sd
Description: as §1, §2, §3

schizophrenia patients [4] = test: SANS, crossover trial of D-serine; format: in vivo, human
Description: as §1
as §2, with “The double-blind, placebo-controlled, crossover study consisted of two random-order 6-week treatment arms (glycine 0.8 g/kg/day, or placebo), separated by a 2-week adjuvant treatment washout.” left out, “order. […]” for “order.”

patients = conditions: D-serine combined with clozapine; Tsai et al., 1999; cited from earlier work
[5] = D-serine phase, week 0, mean ± sd, n=23
[6] = D-serine, week 6, mean ± sd, n=23
[7] = D-serine, week 6 minus week 0, mean ± sd
[8] = during D-serine treatment, 6 weeks

## N[C@H](CC(=O)CP(=O)(O)O)C(=O)O [MDL 100,453]
monkeys
  Effect on symptoms of dyskinesia: worsening symptoms of dyskinesia

## N[C@H](CO)C(=O)O [D-serine]
Schizophrenia patients [1]; [5]
  SAS, treatment week 0: 4.2 ± 1.4
Schizophrenia patients [1]; [6]
  SAS, treatment week 6: 2.4 ± 0.8
Schizophrenia patients [1]; [7]
  SAS, Δ symptoms: −1.8 ± 1.3
Schizophrenia patients [1]; [8]
  Decline in Parkinsonian symptoms as rated by the SAS: 42%
Schizophrenia patients [2]; [5]
  AIMS, treatment week 0: 3.0 ± 0.8
Schizophrenia patients [2]; [6]
  AIMS, treatment week 6: 1.6 ± 1.2
Schizophrenia patients [2]; [7]
  AIMS, Δ symptoms: −1.4 ± 1.1
Schizophrenia patients [2]; [8]
  Decline in dyskinetic symptoms as rated by the AIMS: 50%
Schizophrenia patients [3]; D-serine phase, week 0, n=23
  PANSS Cognitive symptoms, treatment week 0: 8.5 ± 2.2
  PANSS Depression, treatment week 0: 5.3 ± 2.6
  PANSS Excitement, treatment week 0: 1.6 ± 1.5
  PANSS Negative symptoms, treatment week 0: 3.9 ± 4.0
  PANSS Positive Symptoms, treatment week 0: 4.2 ± 2.3
Schizophrenia patients [3]; D-serine, week 6, n=23
  PANSS Cognitive symptoms, treatment week 6: 17.1 ± 2.7
  PANSS Depression, treatment week 6: 13.8 ± 2.2
  PANSS Excitement, treatment week 6: 10.9 ± 1.4
  PANSS Negative symptoms, treatment week 6: 21.0 ± 3.5
  PANSS Positive Symptoms, treatment week 6: 13.0 ± 2.3
Schizophrenia patients [3]; D-serine, week 6 minus week 0
  PANSS Cognitive symptoms, Δ symptoms: −1.4 ± 1.3
  PANSS Depression, Δ symptoms: −1.5 ± 1.8
  PANSS Excitement, Δ symptoms: −0.7 ± 1.2
  PANSS Negative symptoms, Δ symptoms: −2.9 ± 1.9
  PANSS Positive Symptoms, Δ symptoms: −1.2 ± 1.1
Schizophrenia patients [4]; week 6, mean ± sd, n=23
  SANS Total (with globals), treatment week 6: 51.9 ± 8.0
Schizophrenia patients [4]; week 6 minus week 0, mean ± sd
  SANS Total (with globals), Δ symptoms: −9.0 ± 4.3
patients
  Change in SAS or AIMS scores: did not find significant change
